Experimental data published in PubChem BioAssay AID624344 (Sanford-Burnham Center for Chemical Genomics, 2012).
The source made the active and inactive calls. No rule for the calls is given here.

Key:
Cytotoxicity = assay: NFkB reporter suppression in cystic fibrosis bronchial cells – cell-based, uHTS hits, panel, cytotoxicity readout, dose response (AID 624344); settings: CF bronchial epithelial cells, mean of runs
[1] = as above; settings: CF bronchial epithelial cells, PAF-induced NFkB reporter inhibition; with PAF, mean of runs

CCN1CCN(Cc2ccc(NC(=O)c3ccc(C)c(NC(=O)c4csc(-c5ccncc5)n4)c3)cc2C(F)(F)F)CC1
IC50 (Cytotoxicity): 19.9 µM
IC50 [1]: 6.08 µM

COc1ccc2c(c1)c(C(C)=O)c(C)n2-c1ccc(C(C)=O)cc1
IC50 (Cytotoxicity): 44.5 µM
IC50 [1]: 2.83 µM

CCC1(O)CC2CN(CCc3c([nH]c4ccccc34)C(C(=O)OC)(c3cc4c(cc3OC)N(C=O)C3C(O)(C(=O)OC)C(OC(C)=O)C5(CC)C=CCN6CCC43C65)C2)C1 (stereo unspecified)
IC50 (Cytotoxicity): 63.1 µM (inactive)
IC50 [1]: 3.67 µM

O=C(Oc1ccc(F)cc1C(=O)/C=C/c1cccs1)c1cccc([N+](=O)[O-])c1
IC50 (Cytotoxicity): > 79 µM (inactive)
IC50 [1]: inactive

O=C(Nc1ccccc1N1CCOCC1)c1cc(-c2ccco2)nc2ccccc12
IC50 (Cytotoxicity): 9.59 µM
IC50 [1]: 3.88 µM

Cn1c(Sc2ccc(Br)cc2)c(C=O)c2ccccc21
IC50 (Cytotoxicity): 5.64 µM
IC50 [1]: 1.4 µM

C=CCSc1nsc(NC(=O)Nc2cccc(C(C)=O)c2)n1
IC50 (Cytotoxicity): 6.08 µM
IC50 [1]: 1.44 µM

Cc1ccsc1CN(C)c1ncnc2ccc(-c3ccoc3)cc12
IC50 (Cytotoxicity): 47 µM
IC50 [1]: 0.376 µM

Cc1ccc(NC(=O)c2cc(C(=O)c3cc(Cl)ccc3O)cn(-c3ccc(C)cc3)c2=O)cc1
IC50 (Cytotoxicity): 53 µM (inactive)
IC50 [1]: 9.4 µM

CC(C)(CO)CNc1ccn2nccc2n1
IC50 (Cytotoxicity): 76.7 µM (inactive)
IC50 [1]: 5.29 µM

Nc1cc2c(cc1Br)-c1ccccc1C2=NO
IC50 (Cytotoxicity): 60.6 µM (inactive)
IC50 [1]: 11.9 µM

Cc1cccc(NC(=O)Nc2ccc(C#N)cc2)n1
IC50 (Cytotoxicity): 20.6 µM
IC50 [1]: 1.78 µM

C[C@H](O)[C@@H]1CN2CCc3c([nH]c4ccc(-c5ccc6c(c5)OCO6)cc34)[C@@H]2C[C@@H]1N(C)C(=O)Nc1ccc(F)cc1
IC50 (Cytotoxicity): 29 µM
IC50 [1]: 9.85 µM

COc1ccc(N(CCCN2C(=O)c3cccc4cccc(c34)C2=O)C(=O)c2ccncc2)cc1
IC50 (Cytotoxicity): 12.9 µM
IC50 [1]: inactive

Cc1cc(C)cc(NS(=O)(=O)c2ccc(-c3cnc(C4CC4)o3)cc2)c1
IC50 (Cytotoxicity): 40.9 µM
IC50 [1]: 12.1 µM

COc1ccc(OC)c(C2CC(=O)c3c([nH]c(C(=O)OC(C)C)c3C)C2)c1 (stereo unspecified)
IC50 (Cytotoxicity): > 79 µM (inactive)
IC50 [1]: inactive

COc1ccc2cc3c(N)nn(C(=O)Cc4ccccc4OC)c3nc2c1
IC50 (Cytotoxicity): 47.4 µM
IC50 [1]: 2.67 µM

COc1ccc(S(=O)(=O)N2c3cc(C)ccc3OCC2C(C)(C)C)cc1 (stereo unspecified)
IC50 (Cytotoxicity): > 79 µM (inactive)
IC50 [1]: 6.36 µM

CC1=C(C(=O)OCc2ccc3c(c2)OCO3)C(c2ccc(O)c([N+](=O)[O-])c2)NC(=O)N1 (stereo unspecified)
IC50 (Cytotoxicity): > 79 µM (inactive)
IC50 [1]: 1.71 µM

COc1ccc(-c2cnc3c(NC=O)cc(-c4ccccc4OC)cn23)cc1OC
IC50 (Cytotoxicity): 13.7 µM
IC50 [1]: 6.5 µM

OCCCNc1ncnc2scc(-c3ccc(Cl)cc3)c12
IC50 (Cytotoxicity): 32.6 µM
IC50 [1]: 2.35 µM

NC(=O)c1nsc(C(=O)N(c2ccccc2F)C(C(=O)NCc2ccc(F)cc2)c2ccc(O)cc2)c1N (stereo unspecified)
IC50 (Cytotoxicity): 6.55 µM
IC50 [1]: 2.08 µM

C=C1C(=O)[C@]23C[C@H]1CCC2[C@]1(C)C(=O)CC[C@@](C)(C(=O)O)C1C[C@@H]3O (stereo partly specified)
IC50 (Cytotoxicity): 14.4 µM
IC50 [1]: 0.96 µM

O=C(Nc1cccnc1)c1sc2cccc(F)c2c1Cl
IC50 (Cytotoxicity): 43 µM
IC50 [1]: 12.1 µM

COc1ccc(C(c2nnnn2-c2ccc(OC)cc2)N2CCC(n3c(=O)[nH]c4ccccc43)CC2)cc1 (stereo unspecified)
IC50 (Cytotoxicity): 11.7 µM
IC50 [1]: 5.8 µM

CS(=O)(=O)c1ccc2nc(NC(=O)Nc3cccc(Cl)c3)sc2c1
IC50 (Cytotoxicity): 3.28 µM
IC50 [1]: 3.67 µM

O=C(COc1ccc(Cl)cc1)Nc1ncc([N+](=O)[O-])s1
IC50 (Cytotoxicity): 3.32 µM
IC50 [1]: 1.02 µM

O=S(=O)(c1cccc2cnccc12)N1CCCNCC1
IC50 (Cytotoxicity): 8.16 µM
IC50 [1]: 4.07 µM

COc1ccc(-c2cncnc2-c2ccc(OC)cc2O)cc1
IC50 (Cytotoxicity): > 79 µM (inactive)
IC50 [1]: 4.39 µM

CC(C)C[C@H]1CNC(=S)N1C[C@H]1CCCN1C[C@H](Cc1ccc(O)cc1)N1C[C@H](Cc2ccc(O)cc2)N(CC2CCCCC2)C1=S
IC50 (Cytotoxicity): 51.2 µM (inactive)
IC50 [1]: inactive

O=C(Nc1nc2ccc(F)cc2s1)C1CCN(S(=O)(=O)c2cc([N+](=O)[O-])ccc2Cl)CC1
IC50 (Cytotoxicity): 10.8 µM
IC50 [1]: 6.4 µM

O=[N+]([O-])c1ccc2ncnc(N3CCN(Cc4ccc5c(c4)OCO5)CC3)c2c1
IC50 (Cytotoxicity): > 79 µM (inactive)
IC50 [1]: 2.62 µM

Cc1nn(-c2cccc(Cl)c2)c2nc(C(F)(F)F)[nH]c(=O)c12
IC50 (Cytotoxicity): 27.4 µM
IC50 [1]: 16.9 µM

Nc1nccc(-c2ccc(-n3cnc4ccccc43)cc2)n1
IC50 (Cytotoxicity): 49.1 µM
IC50 [1]: 2.13 µM

O=C1N(c2ccccc2C(F)(F)F)O[C@]1(c1ccccc1)C1CCCCC1
IC50 (Cytotoxicity): > 79 µM (inactive)
IC50 [1]: 10.7 µM

c1csc(Cc2nn3c(-c4ccncc4)nnc3s2)c1
IC50 (Cytotoxicity): 57 µM (inactive)
IC50 [1]: 7.94 µM

c1nc(NCc2ccc3c(c2)OCO3)c2cc(-c3ccoc3)ccc2n1
IC50 (Cytotoxicity): 5.93 µM
IC50 [1]: 0.34 µM

Cc1ccc(CCC(=O)Nc2ncc(Cc3cc(Cl)ccc3Cl)s2)o1
IC50 (Cytotoxicity): 13.2 µM
IC50 [1]: 19.2 µM

O=C(NC1CCCC(C(F)(F)F)C1)c1ccc([N+](=O)[O-])o1 (stereo unspecified)
IC50 (Cytotoxicity): 11 µM
IC50 [1]: 3.87 µM

CC(C)(C)S(=O)N1Cc2cc(C(=O)NCC(F)(F)F)nc(-c3cccc(-c4cccc(F)c4)c3)c2[C@@H]1CCO (stereo partly specified)
IC50 (Cytotoxicity): 16 µM
IC50 [1]: 5.86 µM

COc1ccc(-n2nnnc2C(c2cccc(OC)c2OC)N2CCC(n3c(=O)[nH]c4ccccc43)CC2)cc1 (stereo unspecified)
IC50 (Cytotoxicity): 9.39 µM
IC50 [1]: 6.65 µM

Cc1ccc(Sc2c(C=O)c3ccccc3n2C)cc1
IC50 (Cytotoxicity): 18 µM
IC50 [1]: 2 µM

COc1cc(/C=C2\SC(=O)N(CCNC(=O)c3sc4cc(F)ccc4c3Cl)C2=O)cc(OC)c1OC
IC50 (Cytotoxicity): 11.3 µM
IC50 [1]: 7.99 µM

CCc1nccn1C(=O)c1cnn2c(C(F)F)cc(-c3ccc(C)cc3)nc12
IC50 (Cytotoxicity): 6.64 µM
IC50 [1]: 3.86 µM

CCCCCCCCCc1nc2sc3c(c2c(=O)n1NC(=O)c1ccc([N+](=O)[O-])cc1)CC(C)(C)OC3
IC50 (Cytotoxicity): 43.8 µM
IC50 [1]: 5.52 µM

C#CCN(C[C@@H]1[C@@H](OC(=O)NCc2ccco2)[C@@H](OC(=O)NCc2ccco2)Cn2c(=O)ccc(=O)n21)S(=O)(=O)c1ccc(C)cc1
IC50 (Cytotoxicity): 18.3 µM
IC50 [1]: 3.11 µM

COc1ccc(N=Cc2cc3c(cc2O)OC(N)=C(C#N)C3c2ccccc2)cc1 (stereo unspecified)
IC50 (Cytotoxicity): 59.8 µM (inactive)
IC50 [1]: 3.4 µM

COc1ccc(Oc2cc(NC(=O)c3nn(C)cc3[N+](=O)[O-])cc([N+](=O)[O-])c2)cc1
IC50 (Cytotoxicity): 1.69 µM
IC50 [1]: 3.27 µM

CCOc1ccc(CCN2C(=S)N([C@@H](CC(C)C)CN3CCCC3CN3C(=S)NC[C@@H]3CC(C)C)C[C@@H]2Cc2ccc(O)cc2)cc1 (stereo partly specified)
IC50 (Cytotoxicity): 64.1 µM (inactive)
IC50 [1]: 14.9 µM

COc1cccc(-c2cc(NC=O)c3ncc(-c4ccc(C(C)=O)cc4)n3c2)c1
IC50 (Cytotoxicity): 37.2 µM
IC50 [1]: 11.8 µM

COc1ccc2[nH]c3c(c2c1)CCNC3=O
IC50 (Cytotoxicity): > 79 µM (inactive)
IC50 [1]: 1.37 µM

CCCN(CCC)c1ncnc2nc[nH]c12
IC50 (Cytotoxicity): 57.3 µM (inactive)
IC50 [1]: 1.32 µM

COc1ccc(COC(=O)C2=C(C)NC(=O)NC2c2ccc(OC)cc2)cc1 (stereo unspecified)
IC50 (Cytotoxicity): 44.5 µM
IC50 [1]: 6.54 µM

Cc1ccc(-c2n[nH]c(=S)n2/N=C/c2ccncc2)cc1
IC50 (Cytotoxicity): 53.1 µM (inactive)
IC50 [1]: 2.63 µM

CCOc1ccccc1N1CCN(C(=O)c2cc(-c3cc(OC)ccc3OC)nc3ccccc23)CC1
IC50 (Cytotoxicity): 12 µM
IC50 [1]: 4.12 µM

CC(=O)Nc1nc(C)c(-c2csc(Nc3cccc(C(C)=O)c3)n2)s1
IC50 (Cytotoxicity): 40.1 µM
IC50 [1]: 0.538 µM

COc1cc2c(c(OC)c1OC)-c1ccc(O)cc1C(NC(C)=O)CC2 (stereo unspecified)
IC50 (Cytotoxicity): > 79 µM (inactive)
IC50 [1]: > 79 µM (inactive)

c1ccc2c(-c3cncc4ccccc34)cncc2c1
IC50 (Cytotoxicity): 56.9 µM (inactive)
IC50 [1]: 6.1 µM

O=C(CCC1COc2ccccc2O1)Nc1ccc(Cl)cn1 (stereo unspecified)
IC50 (Cytotoxicity): 50.9 µM (inactive)
IC50 [1]: 10.2 µM

Cn1c(N2CCN(C(c3ccccc3)c3ccccc3)CC2)nc2c1c(=O)[nH]c(=O)n2C
IC50 (Cytotoxicity): 7.56 µM
IC50 [1]: 3.69 µM

CN(C)CCCN(C(=O)CCOc1ccccc1)c1nc2c(F)cccc2s1
IC50 (Cytotoxicity): 24.6 µM
IC50 [1]: 5.63 µM

COc1cc(C(=O)Nc2nnc(-c3sccc3C)s2)cc(OC)c1OC
IC50 (Cytotoxicity): 4.33 µM
IC50 [1]: inactive

NC1(C(=O)O)CSSC1
IC50 (Cytotoxicity): 35.6 µM
IC50 [1]: 7.73 µM

O=C(N/N=C/c1ccccc1)c1[nH]c2ccc(Br)cc2c1-c1ccccc1
IC50 (Cytotoxicity): 40.6 µM
IC50 [1]: 6.11 µM

Cc1c(NC(=O)c2cc(-c3cccs3)nc3ccccc23)c(=O)n(-c2ccccc2)n1C
IC50 (Cytotoxicity): 8.78 µM
IC50 [1]: 4.08 µM

Cc1cnc(NC(=O)C2CC(=O)N(c3cccc(Cl)c3)C2)s1 (stereo unspecified)
IC50 (Cytotoxicity): 29.1 µM
IC50 [1]: 3.18 µM

O=C(NNC(=S)Nc1cccc(C(F)(F)F)c1)c1cccc(Cl)c1
IC50 (Cytotoxicity): 9.54 µM
IC50 [1]: 4.81 µM

COc1cc(C2c3cc4c(cc3C3OC(=O)C2C3CO)OCO4)cc(OC)c1OC (stereo unspecified)
IC50 (Cytotoxicity): > 79 µM (inactive)
IC50 [1]: inactive

Cc1ccc2nc(SCC(=O)Nc3cc(C(F)(F)F)ccc3N3CCOCC3)[nH]c2c1
IC50 (Cytotoxicity): 60.8 µM (inactive)
IC50 [1]: inactive

CCSc1nsc(NC(=O)Nc2cccc(OC)c2)n1
IC50 (Cytotoxicity): 23.3 µM
IC50 [1]: 4.22 µM

CCOC(=O)c1[nH]c(C)c(C(=O)N2CCc3ccccc32)c1C
IC50 (Cytotoxicity): 44.5 µM
IC50 [1]: > 79 µM (inactive)

Cc1nc2sc(C(N)=O)c(N)c2c2c1CCCC2
IC50 (Cytotoxicity): 64 µM (inactive)
IC50 [1]: 1.18 µM

CCOc1ccc(-n2cc(-c3ccccc3)c3c(N4CCOCC4)ncnc32)cc1
IC50 (Cytotoxicity): 7.28 µM
IC50 [1]: 3.99 µM

COc1ccc(OC)c(-c2nnc3n2N=C(c2ccc(OC)c(OC4CCOC4)c2)CS3)c1 (stereo unspecified)
IC50 (Cytotoxicity): > 79 µM (inactive)
IC50 [1]: 1.71 µM

Cc1ccnc(Nc2nc(-c3sc(C)nc3C)cs2)c1
IC50 (Cytotoxicity): 16.6 µM
IC50 [1]: 5.11 µM

COc1ccc(COC(=O)C2=C(C)NC(=O)NC2c2ccc(F)cc2)cc1 (stereo unspecified)
IC50 (Cytotoxicity): 39.8 µM
IC50 [1]: 8.9 µM

C/C(=N\Nc1cc(N2CCOCC2)ncn1)c1cccc([N+](=O)[O-])c1
IC50 (Cytotoxicity): 14.4 µM
IC50 [1]: 4.21 µM

Cc1cccc(C(=O)N[C@H](C(=O)Nc2nc3ccccc3[nH]2)C(C)C)c1
IC50 (Cytotoxicity): 19.6 µM
IC50 [1]: 14.9 µM
